# Measured values as given in paper PMC12655637, “Design, Synthesis, and Mechanistic Study of Novel Ciprofloxacin/Thiazole Chalcone Hybrids as Potential Anticancer Agents” (Pharmaceuticals, 2025).
# What was measured:
# Test in all cases: NCI-60 screening, one-dose (10 µM) and five-dose, SRB
# TK-10 = format: cell-based, human
# SR = format: cell-based, human; conditions: five-dose
# SK-MEL-5 = format: cell-based, human
# MDA-MB-468 = format: cell-based, human; conditions: five-dose, MDA-MB-468
# Description: Control cells Test cells FLD
# available usually at NCI library.
# An aliquot of frozen drug concentrate is […]
# OVCAR-8 = format: cell-based, human
# SK-MEL-2 = format: cell-based, human
# 786−0 = format: cell-based, human
# MDA-MB231/ATCC = format: cell-based
# SF-295 = format: cell-based, human
# BT-549 = format: cell-based
# NCI-H226 = format: cell-based, human
# NCI/ADR-RES = format: cell-based, human
# RPMI-8226 = format: cell-based, human; conditions: RPMI-8226
# NCI-H460 = format: cell-based, human
# HOP-62 = format: cell-based, human; conditions: five-dose, HOP-62
# HL-60(TB) = format: cell-based, human; conditions: HL-60(TB)
# SW-620 = format: cell-based, human
# CAKI-1 = format: cell-based
# A549/ATCC = format: cell-based, human
# SNB-75 = format: cell-based, human
# SN12C = format: cell-based, human
# RXF 393 = format: cell-based; conditions: Homo sapiens; 10 μM; RXF 393, Renal Cancer; read-out: Growth percentage
# MDA-MB-435 = format: cell-based; conditions: MDA-MB-435
# HCT-116 = format: cell-based, human; conditions: Homo sapiens
# A498 = format: cell-based
# LOX IMVI = format: cell-based, human
# M14 = format: cell-based, human
# PC-3 = format: cell-based, human
# COLO 205 = format: cell-based, human
# HCT-15 = format: cell-based, human
# [1] = Homo sapiens, read-out: LC50 (the source's name)
# [2] = Homo sapiens, five-dose, SK-MEL-5
# [3] = Homo sapiens, five-dose, OVCAR-8
# [4] = Homo sapiens, five-dose, SK-MEL-2
# [5] = Homo sapiens, five-dose, SF-295
# [6] = Homo sapiens, five-dose, BT-549
# [7] = Homo sapiens, five-dose, NCI-H226
# [8] = Homo sapiens, five-dose, read-out: LC50 (the source's name)
# [9] = Homo sapiens, five-dose, NCI-H460
# [10] = Homo sapiens, five-dose, SW-620
# [11] = Homo sapiens, five-dose, CAKI-1
# [12] = Homo sapiens, five-dose, SNB-75
# [13] = Homo sapiens, five-dose, COLO 205
# [14] = Homo sapiens, five-dose, HCT-15
smiles,measurement,setting,value
"Cc1nc(SCC(=O)N2CCN(c3cc4c(cc3F)c(=O)c(C(=O)O)cn4C3CC3)CC2)sc1C(=O)/C=C/c1cccc(Cl)c1 [Compound 4b, (E)-7-(4-(2-((5-(3-(3-Chlorophenyl)acryloyl)-4-methylthiazol-2-yl)thio)acetyl)piperazin-1-yl)-1-cyclopropyl-6-fluoro-4-oxo-1,4-dihydroquinoline-3-carboxylic Acid]",activity at 10 µM,"TK-10; Homo sapiens, 10 μM, TK-10, Renal Cancer, read-out: Growth percentage",108%
same,GI50,"TK-10; Homo sapiens, five-dose, TK-10",> 100 µM
same,IC50,"TK-10; Homo sapiens, five-dose, TK-10",> 100 µM
same,CC50,"TK-10; Homo sapiens, five-dose, TK-10, read-out: LC50 (the source's name)",> 100 µM
same,TGI,"TK-10; five-dose, TK-10",100.0 µM
same,GI50,SR; Homo sapiens,1.8 µM
same,IC50,SR; Homo sapiens,3.2 µM
same,CC50,SR; [1],9.1 µM
same,TGI,SR,4.1 µM
same,activity at 10 µM,"SK-MEL-5; Homo sapiens, 10 μM, SK-MEL-5, Melanoma, read-out: Growth percentage",50.3%
same,GI50,SK-MEL-5; [2],21.9 µM
same,IC50,SK-MEL-5; [2],> 100 µM
same,CC50,"SK-MEL-5; Homo sapiens, five-dose, SK-MEL-5, read-out: LC50 (the source's name)",> 100 µM
same,TGI,"SK-MEL-5; five-dose, SK-MEL-5",100.0 µM
same,GI50,MDA-MB-468; Homo sapiens,3.9 µM
same,IC50,MDA-MB-468; Homo sapiens,> 100 µM
same,CC50,MDA-MB-468; [1],> 100 µM
same,TGI,MDA-MB-468,15.5 µM
same,activity at 10 µM,"OVCAR-8; Homo sapiens, 10 μM, OVCAR-8, Ovarian Cancer, read-out: Growth percentage",46.1%
same,GI50,OVCAR-8; [3],> 100 µM
same,IC50,OVCAR-8; [3],> 100 µM
same,CC50,"OVCAR-8; Homo sapiens, five-dose, OVCAR-8, read-out: LC50 (the source's name)",> 100 µM
same,TGI,"OVCAR-8; five-dose, OVCAR-8",100.0 µM
same,activity at 10 µM,"SK-MEL-2; Homo sapiens, 10 μM, SK-MEL-2, Melanoma, read-out: Growth percentage",60.8%
same,GI50,SK-MEL-2; [4],46.8 µM
same,IC50,SK-MEL-2; [4],> 100 µM
same,CC50,"SK-MEL-2; Homo sapiens, five-dose, SK-MEL-2, read-out: LC50 (the source's name)",> 100 µM
same,TGI,"SK-MEL-2; five-dose, SK-MEL-2",100.0 µM
same,activity at 10 µM,"786−0; Homo sapiens, 10 μM, 786−0, Renal Cancer, read-out: Growth percentage",74.3%
same,GI50,"786−0; Homo sapiens, five-dose, 786−0",> 100 µM
same,IC50,"786−0; Homo sapiens, five-dose, 786−0",> 100 µM
same,CC50,"786−0; Homo sapiens, five-dose, 786−0, read-out: LC50 (the source's name)",> 100 µM
same,TGI,"786−0; five-dose, 786−0",100.0 µM
same,GI50,"MDA-MB231/ATCC; Homo sapiens, MDA-MB-231",> 100 µM
same,IC50,"MDA-MB231/ATCC; Homo sapiens, MDA-MB-231",> 100 µM
same,CC50,"MDA-MB231/ATCC; Homo sapiens, five-dose, MDA-MB-231/ATCC, read-out: LC50 (the source's name)",> 100 µM
same,TGI,"MDA-MB231/ATCC; five-dose, MDA-MB-231/ATCC",100.0 µM
same,activity at 10 µM,"SF-295; Homo sapiens, 10 μM, SF-295, CNS Cancer, read-out: Growth percentage",93.3%
same,GI50,SF-295; [5],> 100 µM
same,IC50,SF-295; [5],> 100 µM
same,CC50,"SF-295; Homo sapiens, five-dose, SF-295, read-out: LC50 (the source's name)",> 100 µM
same,TGI,"SF-295; five-dose, SF-295",100.0 µM
same,activity at 10 µM,"BT-549; Homo sapiens, 10 μM, BT-549, Breast Cancer, read-out: Growth percentage",-62.2%
same,GI50,BT-549; [6],15.8 µM
same,IC50,BT-549; [6],35.5 µM
same,CC50,"BT-549; Homo sapiens, five-dose, BT-549, read-out: LC50 (the source's name)",85.1 µM
same,TGI,"BT-549; five-dose, BT-549",36.3 µM
same,activity at 10 µM,"NCI-H226; Homo sapiens, 10 μM, NCI-H226, Non-Small-Cell Lung Cancer, read-out: Growth percentage",80.9%
same,GI50,NCI-H226; [7],> 100 µM
same,IC50,NCI-H226; [7],> 100 µM
same,LC50 (concentration killing 50% of cells),NCI-H226; [7],> 100 µM
same,TGI,"NCI-H226; five-dose, NCI-H226",100.0 µM
same,activity at 10 µM,"NCI/ADR-RES; Homo sapiens, 10 μM, Ovarian Cancer, read-out: Growth percentage",112%
same,GI50,"NCI/ADR-RES; Homo sapiens, five-dose",> 100 µM
same,IC50,"NCI/ADR-RES; Homo sapiens, five-dose",> 100 µM
same,CC50,NCI/ADR-RES; [8],> 100 µM
same,TGI,NCI/ADR-RES; five-dose,100.0 µM
same,IC50,"RPMI-8226; Homo sapiens, RPMI-8226, five-dose",0.3 µM
same,GI50,"RPMI-8226; Homo sapiens, five-dose",0.2 µM
same,CC50,RPMI-8226; [8],0.6 µM
same,TGI,RPMI-8226; five-dose,0.3 µM
same,activity at 10 µM,"NCI-H460; Homo sapiens, NCI-H460, 10 μM, NCI-H460, Non-Small-Cell Lung Cancer, read-out: Growth percentage",76.7%
same,GI50,NCI-H460; [9],58.9 µM
same,IC50,NCI-H460; [9],70.8 µM
same,CC50,"NCI-H460; Homo sapiens, five-dose, NCI-H460, read-out: LC50 (the source's name)",> 100 µM
same,TGI,"NCI-H460; five-dose, NCI-H460",100.0 µM
same,GI50,HOP-62; Homo sapiens,4.3 µM
same,IC50,HOP-62; Homo sapiens,> 100 µM
same,CC50,HOP-62; [1],> 100 µM
same,TGI,HOP-62,100.0 µM
same,IC50,"HL-60(TB); Homo sapiens, HL-60, five-dose",3.7 µM
same,GI50,"HL-60(TB); Homo sapiens, five-dose",2.6 µM
same,CC50,HL-60(TB); [8],34.7 µM
same,TGI,HL-60(TB); five-dose,11.2 µM
same,activity at 10 µM,"SW-620; Homo sapiens, 10 μM, SW-620, Colon Cancer, read-out: Growth percentage",53.3%
same,GI50,SW-620; [10],10.5 µM
same,IC50,SW-620; [10],15.1 µM
same,CC50,"SW-620; Homo sapiens, five-dose, SW-620, read-out: LC50 (the source's name)",> 100 µM
same,TGI,"SW-620; five-dose, SW-620",40.7 µM
same,activity at 10 µM,"CAKI-1; Homo sapiens, 10 μM, CAKI-1, Renal Cancer, read-out: Growth percentage",102%
same,GI50,CAKI-1; [11],87.1 µM
same,IC50,CAKI-1; [11],> 100 µM
same,CC50,"CAKI-1; Homo sapiens, five-dose, CAKI-1, read-out: LC50 (the source's name)",> 100 µM
same,TGI,"CAKI-1; five-dose, CAKI-1",100.0 µM
same,activity at 10 µM,"A549/ATCC; Homo sapiens, 10 μM, Non-Small-Cell Lung Cancer, read-out: Growth percentage",82.4%
same,GI50,"A549/ATCC; Homo sapiens, five-dose",> 100 µM
same,IC50,"A549/ATCC; Homo sapiens, five-dose",> 100 µM
same,CC50,A549/ATCC; [8],> 100 µM
same,TGI,A549/ATCC; five-dose,100.0 µM
same,activity at 10 µM,"SNB-75; Homo sapiens, 10 μM, SNB-75, CNS Cancer, read-out: Growth percentage",102%
same,GI50,SNB-75; [12],28.8 µM
same,IC50,SNB-75; [12],> 100 µM
same,CC50,"SNB-75; Homo sapiens, five-dose, SNB-75, read-out: LC50 (the source's name)",> 100 µM
same,TGI,"SNB-75; five-dose, SNB-75",77.6 µM
same,activity at 10 µM,"SN12C; Homo sapiens, 10 μM, Renal Cancer, read-out: Growth percentage",51%
same,GI50,"SN12C; Homo sapiens, five-dose",44.7 µM
same,IC50,"SN12C; Homo sapiens, five-dose",> 100 µM
same,CC50,SN12C; [8],> 100 µM
same,TGI,SN12C; five-dose,100.0 µM
same,activity at 10 µM,RXF 393,-8.1%
same,GI50,MDA-MB-435; Homo sapiens,3.5 µM
same,IC50,MDA-MB-435; Homo sapiens,7.4 µM
same,CC50,MDA-MB-435; [8],> 100 µM
same,TGI,MDA-MB-435; five-dose,52.5 µM
same,activity at 10 µM,"HCT-116; HCT-116, 10 μM, HCT-116, Colon Cancer, read-out: Growth percentage",2.8%
same,GI50,"HCT-116; five-dose, HCT-116",0.2 µM
same,IC50,"HCT-116; five-dose, HCT-116",0.3 µM
same,activity at 10 µM,"A498; Homo sapiens, A498, 10 μM, A498, Renal Cancer, read-out: Growth percentage",36%
same,GI50,"A498; Homo sapiens, five-dose, A498",> 100 µM
same,IC50,"A498; Homo sapiens, five-dose, A498",> 100 µM
same,CC50,"A498; Homo sapiens, five-dose, A498, read-out: LC50 (the source's name)",> 100 µM
same,TGI,"A498; five-dose, A498",100.0 µM
same,activity at 10 µM,"LOX IMVI; Homo sapiens, 10 μM, Melanoma, read-out: Growth percentage",36.9%
same,GI50,"LOX IMVI; Homo sapiens, five-dose",2.4 µM
same,IC50,"LOX IMVI; Homo sapiens, five-dose",3 µM
same,CC50,LOX IMVI; [8],> 100 µM
same,TGI,LOX IMVI; five-dose,100.0 µM
same,activity at 10 µM,"M14; Homo sapiens, 10 μM, M14, Melanoma, read-out: Growth percentage",48.7%
same,GI50,"M14; Homo sapiens, five-dose, M14",27.5 µM
same,IC50,"M14; Homo sapiens, five-dose, M14",69.2 µM
same,CC50,"M14; Homo sapiens, five-dose, M14, read-out: LC50 (the source's name)",> 100 µM
same,TGI,"M14; five-dose, M14",100.0 µM
same,activity at 10 µM,"PC-3; Homo sapiens, 10 μM, PC-3, Prostate Cancer, read-out: Growth percentage",74.1%
same,GI50,"PC-3; Homo sapiens, five-dose, PC-3",55 µM
same,IC50,"PC-3; Homo sapiens, five-dose, PC-3",> 100 µM
same,CC50,"PC-3; Homo sapiens, five-dose, PC-3, read-out: LC50 (the source's name)",> 100 µM
same,TGI,"PC-3; five-dose, PC-3",100.0 µM
same,activity at 10 µM,"COLO 205; Homo sapiens, 10 μM, COLO 205, Colon Cancer, read-out: Growth percentage",114%
same,GI50,COLO 205; [13],4.3 µM
same,IC50,COLO 205; [13],6.2 µM
same,CC50,"COLO 205; Homo sapiens, five-dose, COLO 205, read-out: LC50 (the source's name)",> 100 µM
same,TGI,"COLO 205; five-dose, COLO 205",100.0 µM
same,activity at 10 µM,"HCT-15; Homo sapiens, 10 μM, HCT-15, Colon Cancer, read-out: Growth percentage",26.9%
same,IC50,HCT-15; [14],> 100 µM
same,LC50 (50% lethal concentration),HCT-15; [14],> 100 µM
same,TGI,"HCT-15; five-dose, HCT-15",100.0 µM
